{
  "source": "ChEMBL document CHEMBL3132769",
  "about": "“Fragment growing to retain or alter the selectivity of anchored kinase hinge-binding fragments” (Medchemcomm, 2014)",
  "key": {"[1]": {"molecular_target": "T1, Protein kinase C epsilon type (Homo sapiens) (UniProt Q02156)", "T1 sequence (whole entry)": "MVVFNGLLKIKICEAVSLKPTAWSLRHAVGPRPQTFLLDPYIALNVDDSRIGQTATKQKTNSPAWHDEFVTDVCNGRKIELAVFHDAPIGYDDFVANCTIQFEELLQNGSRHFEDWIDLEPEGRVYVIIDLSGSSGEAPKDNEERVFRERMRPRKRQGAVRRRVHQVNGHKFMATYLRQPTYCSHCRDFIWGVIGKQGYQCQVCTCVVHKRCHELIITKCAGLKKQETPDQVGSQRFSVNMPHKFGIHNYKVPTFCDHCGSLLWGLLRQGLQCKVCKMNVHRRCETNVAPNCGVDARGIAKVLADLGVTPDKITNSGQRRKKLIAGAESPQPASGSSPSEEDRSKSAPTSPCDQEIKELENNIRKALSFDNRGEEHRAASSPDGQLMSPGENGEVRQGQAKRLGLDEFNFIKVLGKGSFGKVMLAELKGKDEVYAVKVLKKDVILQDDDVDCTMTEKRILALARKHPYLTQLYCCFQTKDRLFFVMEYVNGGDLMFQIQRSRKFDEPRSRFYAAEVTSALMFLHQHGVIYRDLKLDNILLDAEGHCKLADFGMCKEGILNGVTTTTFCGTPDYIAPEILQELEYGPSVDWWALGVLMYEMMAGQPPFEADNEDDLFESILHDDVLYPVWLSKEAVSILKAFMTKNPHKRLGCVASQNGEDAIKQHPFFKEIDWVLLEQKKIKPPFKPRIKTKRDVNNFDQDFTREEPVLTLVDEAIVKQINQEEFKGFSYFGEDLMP", "test": "Inhibition of human truncated PKC epsilon expressed in baculovirus assessed as substrate phosphorylation using fluorescence-labelled peptides as substrate at 8 uM after 90 mins by microfluidic peptide phosphorylation assay"}, "[2]": {"molecular_target": "Calcium/calmodulin-dependent protein kinase type II subunit delta (Homo sapiens) (UniProt Q13557)", "sequence (Q13557 whole entry)": "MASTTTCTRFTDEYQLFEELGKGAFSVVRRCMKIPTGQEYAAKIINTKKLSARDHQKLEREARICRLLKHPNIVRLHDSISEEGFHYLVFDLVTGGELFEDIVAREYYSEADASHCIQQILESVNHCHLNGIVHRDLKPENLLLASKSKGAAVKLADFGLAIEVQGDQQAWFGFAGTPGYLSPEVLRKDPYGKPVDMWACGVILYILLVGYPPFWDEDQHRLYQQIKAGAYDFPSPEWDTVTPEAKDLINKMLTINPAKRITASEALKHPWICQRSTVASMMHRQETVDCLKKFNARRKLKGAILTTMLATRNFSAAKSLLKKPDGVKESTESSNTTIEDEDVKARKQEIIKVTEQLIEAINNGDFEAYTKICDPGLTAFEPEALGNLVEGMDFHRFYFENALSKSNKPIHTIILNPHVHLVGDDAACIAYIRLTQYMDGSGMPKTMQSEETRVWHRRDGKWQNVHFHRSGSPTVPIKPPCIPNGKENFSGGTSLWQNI", "test": "Inhibition of human full length CAMK2D expressed in baculovirus assessed as substrate phosphorylation using fluorescence-labelled peptides as substrate at 8 uM after 90 mins by microfluidic peptide phosphorylation assay"}, "[3]": {"molecular_target": "Insulin-like growth factor 1 receptor (Homo sapiens) (UniProt P08069)", "test": "Inhibition of human IGF1R catalytic domain expressed in baculovirus assessed as substrate phosphorylation using fluorescence-labelled peptides as substrate at 8 uM after 90 mins by microfluidic peptide phosphorylation assay"}, "[4]": {"molecular_target": "MAP kinase p38 (Homo sapiens) (UniProt O15264+Q15759+Q16539+P53778)", "test": "Inhibition of human full length p38 beta2 expressed in Escherichia coli cell assessed as substrate phosphorylation using fluorescence-labelled peptides as substrate at 0.2 uM after 90 mins by microfluidic peptide phosphorylation assay"}, "[5]": {"molecular_target": "Proto-oncogene tyrosine-protein kinase Src (Homo sapiens) (UniProt P12931)", "sequence (P12931 2-536 limits assumed)": "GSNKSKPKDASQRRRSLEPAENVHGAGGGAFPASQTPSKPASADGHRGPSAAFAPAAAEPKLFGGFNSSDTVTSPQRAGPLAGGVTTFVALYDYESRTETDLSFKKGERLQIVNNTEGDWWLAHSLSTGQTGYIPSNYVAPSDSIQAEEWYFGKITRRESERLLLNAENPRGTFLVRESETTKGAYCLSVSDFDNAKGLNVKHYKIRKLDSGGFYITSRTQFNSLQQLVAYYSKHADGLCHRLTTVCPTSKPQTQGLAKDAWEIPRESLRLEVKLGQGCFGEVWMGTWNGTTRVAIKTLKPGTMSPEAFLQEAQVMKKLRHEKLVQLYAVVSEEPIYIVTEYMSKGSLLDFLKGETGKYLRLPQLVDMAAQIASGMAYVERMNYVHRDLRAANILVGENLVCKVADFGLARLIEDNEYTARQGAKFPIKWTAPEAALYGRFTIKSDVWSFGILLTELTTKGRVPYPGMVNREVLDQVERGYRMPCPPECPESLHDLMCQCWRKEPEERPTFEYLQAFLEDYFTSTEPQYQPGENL", "test": "Inhibition of human full length SRC expressed in baculovirus assessed as substrate phosphorylation using fluorescence-labelled peptides as substrate at […] after 90 mins by microfluidic peptide phosphorylation assay"}, "[6]": {"molecular_target": "Platelet-derived growth factor receptor alpha (Homo sapiens) (UniProt P16234)", "test": "Inhibition of human PDGFR alpha catalytic domain expressed in baculovirus assessed as substrate phosphorylation using fluorescence-labelled peptides as substrate at […] after 90 mins by microfluidic peptide phosphorylation assay"}, "[7]": {"molecular_target": "Hepatocyte growth factor receptor (Homo sapiens) (UniProt P08581)", "test": "Inhibition of human MET cytoplasmic domain expressed in baculovirus assessed as substrate phosphorylation using fluorescence-labelled peptides as substrate at 9 uM after 90 mins by microfluidic peptide phosphorylation assay"}, "[8]": {"molecular_target": "Casein kinase I isoform alpha (Homo sapiens) (UniProt P48729)", "sequence (P48729 2-337 limits assumed)": "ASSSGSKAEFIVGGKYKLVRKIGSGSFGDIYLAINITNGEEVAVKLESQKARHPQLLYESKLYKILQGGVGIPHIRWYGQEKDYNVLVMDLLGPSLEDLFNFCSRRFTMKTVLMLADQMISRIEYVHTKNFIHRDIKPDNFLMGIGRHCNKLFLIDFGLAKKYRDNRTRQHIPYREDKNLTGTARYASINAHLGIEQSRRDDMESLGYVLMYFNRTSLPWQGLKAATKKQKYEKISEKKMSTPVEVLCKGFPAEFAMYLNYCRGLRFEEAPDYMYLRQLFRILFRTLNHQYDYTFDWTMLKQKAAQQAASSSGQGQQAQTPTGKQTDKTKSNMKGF", "test": "Inhibition of human full length CSNK1A1 expressed in baculovirus assessed as substrate phosphorylation using fluorescence-labelled peptides as substrate at 9 uM after 90 mins by microfluidic peptide phosphorylation assay"}, "[9]": {"molecular_target": "Mitogen-activated protein kinase kinase kinase kinase 4 (Homo sapiens) (UniProt O95819)", "sequence (O95819 2-1239 limits assumed)": "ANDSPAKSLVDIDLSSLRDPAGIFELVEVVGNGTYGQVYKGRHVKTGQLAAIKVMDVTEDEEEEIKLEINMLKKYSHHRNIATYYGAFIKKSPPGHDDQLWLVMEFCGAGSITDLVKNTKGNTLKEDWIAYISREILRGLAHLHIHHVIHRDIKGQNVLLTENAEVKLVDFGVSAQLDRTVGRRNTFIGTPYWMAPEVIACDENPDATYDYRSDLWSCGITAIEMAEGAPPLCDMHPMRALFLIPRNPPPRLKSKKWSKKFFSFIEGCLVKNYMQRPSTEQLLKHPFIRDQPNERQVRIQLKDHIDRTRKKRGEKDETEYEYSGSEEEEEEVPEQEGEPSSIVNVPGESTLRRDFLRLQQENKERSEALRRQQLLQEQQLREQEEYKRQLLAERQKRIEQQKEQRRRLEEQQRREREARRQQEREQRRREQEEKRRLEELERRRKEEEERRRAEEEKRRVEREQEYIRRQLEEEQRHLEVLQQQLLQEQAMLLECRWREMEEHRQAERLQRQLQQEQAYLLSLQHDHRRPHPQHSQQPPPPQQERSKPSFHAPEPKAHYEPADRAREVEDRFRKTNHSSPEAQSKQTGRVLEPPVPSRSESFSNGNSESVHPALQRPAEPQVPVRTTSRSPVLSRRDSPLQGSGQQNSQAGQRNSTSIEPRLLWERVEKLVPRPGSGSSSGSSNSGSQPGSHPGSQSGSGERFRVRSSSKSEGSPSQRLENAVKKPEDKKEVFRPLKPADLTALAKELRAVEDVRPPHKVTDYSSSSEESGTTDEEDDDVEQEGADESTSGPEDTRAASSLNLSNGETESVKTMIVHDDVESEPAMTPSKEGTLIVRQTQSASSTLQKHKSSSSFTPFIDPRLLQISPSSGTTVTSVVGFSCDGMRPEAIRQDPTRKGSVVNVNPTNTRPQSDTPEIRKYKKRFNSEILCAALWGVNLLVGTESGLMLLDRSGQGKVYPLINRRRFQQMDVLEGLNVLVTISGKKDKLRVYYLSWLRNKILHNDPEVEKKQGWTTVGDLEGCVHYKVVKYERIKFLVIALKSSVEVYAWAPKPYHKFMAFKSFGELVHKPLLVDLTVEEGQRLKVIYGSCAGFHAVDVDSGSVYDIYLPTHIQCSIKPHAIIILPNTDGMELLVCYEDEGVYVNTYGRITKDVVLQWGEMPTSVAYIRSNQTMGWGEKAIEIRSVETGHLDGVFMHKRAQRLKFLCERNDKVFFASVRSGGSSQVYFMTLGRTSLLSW", "test": "Inhibition of human HGK catalytic domain expressed in baculovirus assessed as substrate phosphorylation using fluorescence-labelled peptides as substrate at 1000 uM after 90 mins by microfluidic peptide phosphorylation assay"}, "[10]": {"molecular_target": "Fibroblast growth factor receptor 1 (Homo sapiens) (UniProt P11362)", "sequence (P11362 22-822 limits assumed)": "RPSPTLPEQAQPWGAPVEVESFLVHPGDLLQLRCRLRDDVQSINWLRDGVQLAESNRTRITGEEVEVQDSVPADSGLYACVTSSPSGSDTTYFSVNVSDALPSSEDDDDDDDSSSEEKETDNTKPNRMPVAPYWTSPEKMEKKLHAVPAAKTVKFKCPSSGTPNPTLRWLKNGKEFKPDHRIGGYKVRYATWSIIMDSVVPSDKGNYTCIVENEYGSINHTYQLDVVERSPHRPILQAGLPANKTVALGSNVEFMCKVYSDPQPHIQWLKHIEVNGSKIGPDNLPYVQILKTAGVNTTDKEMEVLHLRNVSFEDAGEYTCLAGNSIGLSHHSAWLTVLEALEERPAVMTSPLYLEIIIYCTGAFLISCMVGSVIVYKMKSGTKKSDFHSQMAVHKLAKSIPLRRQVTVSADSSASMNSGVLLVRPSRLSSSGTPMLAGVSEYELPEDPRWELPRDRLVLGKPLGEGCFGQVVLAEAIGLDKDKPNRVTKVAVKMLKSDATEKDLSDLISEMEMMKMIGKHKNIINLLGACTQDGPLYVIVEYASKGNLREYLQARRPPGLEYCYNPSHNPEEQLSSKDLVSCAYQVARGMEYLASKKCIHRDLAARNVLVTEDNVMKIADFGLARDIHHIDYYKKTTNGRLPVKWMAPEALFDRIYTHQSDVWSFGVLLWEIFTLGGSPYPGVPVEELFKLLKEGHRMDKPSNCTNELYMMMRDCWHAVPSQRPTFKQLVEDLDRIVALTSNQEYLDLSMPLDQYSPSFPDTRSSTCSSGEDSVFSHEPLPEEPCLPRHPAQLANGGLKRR", "test": "Inhibition of human FGFR1 catalytic domain expressed in baculovirus assessed as substrate phosphorylation using fluorescence-labelled peptides as substrate at 1000 uM after 90 mins by microfluidic peptide phosphorylation assay"}, "[11]": {"molecular_target": "Insulin-like growth factor 1 receptor (Homo sapiens) (UniProt P08069)", "test": "Inhibition of human IGF1R catalytic domain expressed in baculovirus assessed as substrate phosphorylation using fluorescence-labelled peptides as substrate at 70 uM after 90 mins by microfluidic peptide phosphorylation assay"}, "[12]": {"molecular_target": "Insulin receptor (Homo sapiens) (UniProt P06213)", "test": "Inhibition of human INSR catalytic domain expressed in baculovirus assessed as substrate phosphorylation using fluorescence-labelled peptides as substrate at 70 uM after 90 mins by microfluidic peptide phosphorylation assay"}, "[13]": {"molecular_target": "Mitogen-activated protein kinase 14 (Homo sapiens) (UniProt Q16539)", "sequence (Q16539 whole entry, the tested form may be a part)": "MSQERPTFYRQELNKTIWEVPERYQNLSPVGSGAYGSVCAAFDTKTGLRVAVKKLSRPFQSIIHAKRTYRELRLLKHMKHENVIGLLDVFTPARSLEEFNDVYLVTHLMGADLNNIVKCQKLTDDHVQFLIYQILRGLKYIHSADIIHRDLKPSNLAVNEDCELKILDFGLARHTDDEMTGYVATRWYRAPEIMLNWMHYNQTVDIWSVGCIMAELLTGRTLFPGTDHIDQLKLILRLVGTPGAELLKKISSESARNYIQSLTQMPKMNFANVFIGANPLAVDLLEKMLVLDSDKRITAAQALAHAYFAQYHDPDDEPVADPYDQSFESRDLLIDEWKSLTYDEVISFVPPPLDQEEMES", "test": "Inhibition of human truncated p38 alpha expressed in Escherichia coli cell assessed as substrate phosphorylation using fluorescence-labelled peptides as substrate at 420 uM after 90 mins by microfluidic peptide phosphorylation assay"}, "[14]": {"molecular_target": "Tyrosine-protein kinase ABL2 (Homo sapiens) (UniProt P42684)", "sequence (P42684 whole entry, the tested form may be a part)": "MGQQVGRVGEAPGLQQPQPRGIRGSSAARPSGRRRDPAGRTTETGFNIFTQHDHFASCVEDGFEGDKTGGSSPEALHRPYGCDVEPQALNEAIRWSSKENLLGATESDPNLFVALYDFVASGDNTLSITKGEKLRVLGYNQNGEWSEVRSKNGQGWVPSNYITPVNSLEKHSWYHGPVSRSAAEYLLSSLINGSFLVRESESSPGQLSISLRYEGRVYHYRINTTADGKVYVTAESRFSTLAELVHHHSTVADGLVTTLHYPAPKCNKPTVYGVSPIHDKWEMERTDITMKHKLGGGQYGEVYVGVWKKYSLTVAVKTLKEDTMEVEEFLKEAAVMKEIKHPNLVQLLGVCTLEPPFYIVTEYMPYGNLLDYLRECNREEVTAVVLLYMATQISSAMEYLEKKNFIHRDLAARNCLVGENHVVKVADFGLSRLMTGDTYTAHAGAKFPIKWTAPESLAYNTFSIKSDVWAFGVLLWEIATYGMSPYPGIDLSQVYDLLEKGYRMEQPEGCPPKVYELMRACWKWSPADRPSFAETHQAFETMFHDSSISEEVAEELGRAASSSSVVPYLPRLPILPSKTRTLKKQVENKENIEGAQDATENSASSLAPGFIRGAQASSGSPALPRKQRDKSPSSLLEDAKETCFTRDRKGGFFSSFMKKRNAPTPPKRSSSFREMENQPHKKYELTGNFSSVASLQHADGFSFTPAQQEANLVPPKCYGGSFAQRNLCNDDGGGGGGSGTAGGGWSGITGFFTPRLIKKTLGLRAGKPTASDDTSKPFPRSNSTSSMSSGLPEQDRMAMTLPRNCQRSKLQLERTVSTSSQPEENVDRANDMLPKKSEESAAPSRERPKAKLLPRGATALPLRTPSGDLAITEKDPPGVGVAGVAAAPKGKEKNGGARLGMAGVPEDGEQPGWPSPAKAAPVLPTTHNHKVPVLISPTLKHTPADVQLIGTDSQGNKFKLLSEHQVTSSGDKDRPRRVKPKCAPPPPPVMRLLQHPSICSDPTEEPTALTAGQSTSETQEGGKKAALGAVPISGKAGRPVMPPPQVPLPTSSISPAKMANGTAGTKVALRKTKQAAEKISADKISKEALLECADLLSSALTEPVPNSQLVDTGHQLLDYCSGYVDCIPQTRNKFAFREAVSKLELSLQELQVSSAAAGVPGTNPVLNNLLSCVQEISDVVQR", "test": "Inhibition of human truncated Arg expressed in baculovirus assessed as substrate phosphorylation using fluorescence-labelled peptides as substrate at 420 uM after 90 mins by microfluidic peptide phosphorylation assay"}, "[15]": {"tested_on": "Tyrosine-protein kinase ABL1 (Homo sapiens), P00519 [Q252H]", "test": "Inhibition of human truncated ABL Q252H mutant expressed in baculovirus assessed as substrate phosphorylation using fluorescence-labelled peptides as substrate at 420 uM after 90 mins by microfluidic peptide phosphorylation assay"}, "[16]": {"molecular_target": "T2, Testis-specific serine/threonine-protein kinase 1 (Homo sapiens) (UniProt Q9BXA7)", "T2 sequence (whole entry)": "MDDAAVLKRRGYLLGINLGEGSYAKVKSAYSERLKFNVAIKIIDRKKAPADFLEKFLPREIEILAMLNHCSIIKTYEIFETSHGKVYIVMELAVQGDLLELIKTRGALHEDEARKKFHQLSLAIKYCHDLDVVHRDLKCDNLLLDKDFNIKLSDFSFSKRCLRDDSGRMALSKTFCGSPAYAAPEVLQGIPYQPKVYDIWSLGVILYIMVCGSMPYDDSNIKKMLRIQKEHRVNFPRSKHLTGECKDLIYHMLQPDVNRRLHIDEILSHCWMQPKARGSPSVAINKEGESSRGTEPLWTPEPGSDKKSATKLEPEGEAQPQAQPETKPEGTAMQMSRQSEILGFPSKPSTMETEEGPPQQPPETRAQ", "test": "Inhibition of human full length TSSK1 expressed in baculovirus assessed as substrate phosphorylation using fluorescence-labelled peptides as substrate at 420 uM after 90 mins by microfluidic peptide phosphorylation assay"}, "[17]": {"species": "Homo sapiens", "test": "Inhibition of human full length PKA expressed in baculovirus assessed as substrate phosphorylation using fluorescence-labelled peptides as substrate at 420 uM after 90 mins by microfluidic peptide phosphorylation assay"}},
  "data": [
    {"smiles": "NCC1CCN(c2ncnc3[nH]ccc23)CC1", "values": [
      {"measurement": "inhibition", "setting": "[1]", "result": 34, "unit": "%"},
      {"measurement": "inhibition", "setting": "[2]", "result": 25, "unit": "%"},
      {"measurement": "inhibition", "setting": "[3]", "result": 30, "unit": "%"}
    ]},
    {"smiles": "Clc1ccc(C2(c3ccc(-c4ncnc5[nH]cnc45)cc3)CCNCC2)cc1", "values": [
      {"measurement": "inhibition", "setting": "[4]", "result": 2.5, "unit": "%"}
    ]},
    {"smiles": "COC(=O)c1cnc(Nc2cnc(C#N)cn2)cc1NCC1CCNCC1", "values": [
      {"measurement": "inhibition", "setting": "[5]", "result": 7.5, "unit": "%"},
      {"measurement": "inhibition", "setting": "[6]", "result": 9.5, "unit": "%"}
    ]},
    {"smiles": "NCC1CN(c2ncnc3[nH]c4cnccc4c23)CCO1", "note": "(configuration not stated)", "values": [
      {"measurement": "inhibition", "setting": "[7]", "result": 0, "unit": "%"},
      {"measurement": "inhibition", "setting": "[8]", "result": 13, "unit": "%"}
    ]},
    {"smiles": "c1cnc2[nH]ccc2c1", "values": [
      {"measurement": "inhibition", "setting": "[9]", "result": 90, "unit": "%"},
      {"measurement": "inhibition", "setting": "[10]", "result": 64.5, "unit": "%"}
    ]},
    {"smiles": "CNCc1ccc(-c2ncnc3[nH]cnc23)cc1", "values": [
      {"measurement": "inhibition", "setting": "[11]", "result": 0, "unit": "%"},
      {"measurement": "inhibition", "setting": "[12]", "result": 0, "unit": "%"}
    ]},
    {"smiles": "c1nc(N2CCOCC2)c2nc[nH]c2n1", "values": [
      {"measurement": "inhibition", "setting": "[13]", "result": 0, "unit": "%"},
      {"measurement": "inhibition", "setting": "[14]", "result": 54.5, "unit": "%"},
      {"measurement": "inhibition", "setting": "[15]", "result": 64, "unit": "%"},
      {"measurement": "inhibition", "setting": "[16]", "result": 71, "unit": "%"},
      {"measurement": "inhibition", "setting": "[17]", "result": 92.5, "unit": "%"}
    ]}
  ]
}
